According to US20100093811A1 (priority 2007, published 2010):
Counter-ions that a name gives are not always drawn. Like-named read-outs stand apart in the source and are kept apart here.

Assays:
[1] = target: wild-type HIV-1 protease (Human immunodeficiency virus type 1 group M subtype B, UniProt P04585); assay: Assay for inhibition of microbial expressed HIV protease; type: biochemical
In short: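 E. coli-expressed protease (5 pM) preincubated with inhibitor 30 min at room temperature in 50 mM sodium acetate pH 5.5, 100 mM NaCl, 0.1% BSA. Substrate Val-Ser-Gln-Asn-(betanapthyl)Ala-Pro-Ile-Val at 440 micromolar, 1 h at 30° C; acid-quenched, product peak area by C18 HPLC gives inhibition.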

[2] = system: acute HIV infection of T-lymphoid cells; assay: Assay for inhibition of HIV replication (spread assay); type: cell-based, HIV-1
Method: • Assay for Inhibition of HIV Replication
Assays for the inhibition of acute HIV infection of T-lymphoid cells were conducted in accordance with Vacca, J. P. et al., Proc. Natl. Acad. Sci. USA 1994, 91: 4096.

[3] = wild-type HIV-1 protease expressed in E. coli, peptide substrate, pH 5.5, read-out: Enzyme Inhibition - IC50
[4] = Human immunodeficiency virus 1, T-lymphoid, read-out: Spread - IC95

Compound	IC50 [1, 3] [nM]	IC95 [2, 4] [nM]	IC50 [1] [nM]	IC95 ([2]; Human immunodeficiency virus 1, T-lymphoid, read-out: Spread - IC95 (nM)) [nM]	IC95 ([2]; inhibition of HIV-1 replication, 10% FBS, read-out: Spread - IC95) [nM]
C=C[C@@H](CCC[C@@H](CO)N(CCC(C)C)S(=O)(=O)c1ccc(CO)cc1)NC(=O)[C@@H](NC(=O)OC)C(c1ccccc1)c1ccccc1 [Example J10, N-{(1R,5S)-6-hydroxy-5-[{[4-(hydroxymethyl)phenyl]sulfonyl}(3-methylbutyl)amino]-1-vinylhexyl}-Nα-(methoxycarbonyl)-β-phenyl-L-phenylalaninamide]	0.005	4	–	–	–
COC(=O)N[C@H](C(=O)N[C@@H](C)CCC[C@@H](CO)N(C(C)C)S(=O)(=O)c1ccc(N)cc1)C(c1cccc(F)c1)c1cccc(F)c1 [Example F15, N-{(1S,5S)-5-[[(4-aminophenyl)sulfonyl](isopropyl)amino]-6-hydroxy-1-methylhexyl}-3-fluoro-β-(3-fluorophenyl)-Nα-(methoxycarbonyl)-L-phenylalaninamide]	0.01	16	–	–	–
CC[C@@H](CCC[C@@H](CO)N(CCC(C)C)S(=O)(=O)c1ccc(CO)cc1)NC(=O)[C@@H](NC(=O)OC)C(c1ccc(Cl)cc1)c1ccc(Cl)cc1 [Example J44, 4-chloro-β-(4-chlorophenyl)-N-{(1S,5S)-1-ethyl-6-hydroxy-5-[{[4-(hydroxymethyl)phenyl]sulfonyl}(3-methylbutyl)amino]hexyl}-Nα-(metboxycarbonyl)-L-phenylalaninamide]	0.081	126	–	–	–
CCCN([C@H](CO)CCC[C@@H](NC(=O)[C@@H](NC(=O)OC)C(c1ccccc1)c1ccccc1)C1CC1)S(=O)(=O)c1ccc(N)cc1 [Example I7, N-{(1R,5S)-5-[[(4-aminophenyl)sulfonyl](propyl)amino]-1-cyclopropyl-6-hydroxyhexyl}-Nα-(methoxycarbonyl)-β-phenyl-L-phenylalaninamide]	0.206	43	–	–	–
COC(=O)N[C@@H](Cc1ccccc1Cl)C(=O)N[C@@H](C)CCC[C@@H](CO)N(CC(C)C)S(=O)(=O)c1ccc(N)cc1 [Example D8, N-{(1S,5S)-5-[[(4-aminophenyl)sulfonyl](isobutyl)amino]-6-hydroxy-1-methylhexyl}-2-chloro-Nα-(methoxycarbonyl)-L-phenylalaninamide]	0.327	46	–	–	–
COC(=O)N[C@H](C(=O)N[C@@H](C)CCC[C@@H](CO)N(C)S(=O)(=O)c1ccc(N)cc1)C(c1ccccc1)c1ccccc1 [Example G4, N-{(1S,5S)-5-[[(4-aminophenyl)sulfonyl](methyl)amino]-6-hydroxy-1-methylhexyl}-Nα-(metboxycarbonyl)-β-phenyl-L-phenylalaninamide]	0.405	41	–	–	–
COC(=O)N[C@H](C(=O)N[C@H](CCC[C@@H](CO)N(CCC(C)C)S(=O)(=O)c1ccc(CO)cc1)C1CC1)C(c1ccccc1)c1ccccc1 [Example J8, N-{(1R,5S)-1-cyclopropyl-6-hydroxy-5-[{[4-(hydroxymethyl)phenyl]sulfonyl}(3-methylbutyl)amino]hexyl}-Nα-(methoxycarbonyl)-β-phenyl-L-phenylalaninamide]	0.015	10	–	–	–
CCCN([C@H](CO)CCC[C@H](C)NC(=O)[C@@H](NC(=O)OC)C(c1cccc(F)c1)c1cccc(F)c1)S(=O)(=O)c1ccc(N)cc1 [Example F17, N-{(1S,5S)-5-[[(4-aminophenyl)sulfonyl](propyl)amino]-6-hydroxy-1-methylhexyl}-3-fluoro-β-(3-fluorophenyl)-Nα-(methoxycarbonyl)-L-phenylalaninamide]	0.01	18	–	–	–
COC(=O)N[C@@H](Cc1ccccc1Br)C(=O)N[C@@H](C)CCC[C@@H](CO)N(C(C)C)S(=O)(=O)c1ccc(CO)cc1 [Example G13, 2-bromo-N-{(1S,5S)-6-hydroxy-5-[{[4-(hydroxymethyl)phenyl]sulfonyl}(isopropyl)amino]-1-methylhexyl}-Nα-(methoxycarbonyl)-L-phenylalaninamide]	0.291	71	–	–	–
COC(=O)N[C@H](C(=O)N[C@H](CCC[C@@H](CO)N(CC(C)C)S(=O)(=O)c1ccc2ncsc2c1)C1CC1)C(c1ccccc1)c1ccccc1 [Example E6, N-{(1R,5S)-5-[(1,3-benzothiazol-6-ylsulfonyl)(isobutyl)amino]-1-cyclopropyl-6-hydroxyhexyl}-Nα-(methoxycarbonyl)-β-phenyl-L-phenylalaninamide]	0.352	27	–	–	–
COC(=O)N[C@H](C(=O)N[C@H](CCC[C@@H](CO)N(C)S(=O)(=O)c1ccc(N)cc1)C1CC1)C(c1ccccc1)c1ccccc1 [Example I9, N-{(1R,5S)-5-[[(4-aminophenyl)sulfonyl](methyl)amino]-1-cyclopropyl-6-hydroxyhexyl}-Nα-(methoxycarbonyl)-β-phenyl-L-phenylalaninamide]	3.2	323	–	–	–
COC(=O)N[C@@H](Cc1ccccc1Br)C(=O)N[C@@H](C)CCC[C@@H](CO)N(C(C)C)S(=O)(=O)c1ccc(N)cc1 [Example G15, N-{(1S,SS)-5-[[(4-aminophenyl)sulfonyl](isopropyl)amino]-6-hydroxy-1-methylhexyl}-2-bromo-Nα-(methoxycarbonyl)-L-phenylalaninamide]	0.584	77	–	–	–
CC[C@@H](CCC[C@@H](CO)N(CCC(C)C)S(=O)(=O)c1ccc(N)c(Br)c1)NC(=O)[C@@H](NC(=O)OC)C(c1ccccc1)c1ccccc1 [Example D17, N-{(1S,5S)-5-[[(4-amino-3-bromophenyl)sulfonyl](3-methylbutyl)amino]-1-ethyl-6-hydroxyhexyl}-Nα-(methoxycarbonyl)-β-phenyl-L-phenylalaninamide]	0.38	154	–	–	–
CCN([C@H](CO)CCC[C@@H](NC(=O)[C@@H](NC(=O)OC)C(c1ccccc1)c1ccccc1)C(F)(F)F)S(=O)(=O)c1ccc(N)cc1 [Example H4, N-[(1R,5S)-5-[[(4-aminophenyl)sulfonyl](ethyl)amino]-6-hydroxy-1-(trifluoromethyl)hexyl]-Nα-(methoxycarbonyl)-β-phenyl-L-phenylalaninamide]	–	29	0.173	–	–
COC(=O)N[C@H](C(=O)NC(C)(C)CCC[C@@H](CO)N(CC(C)C)S(=O)(=O)c1ccc(N)cc1)C(c1ccccc1)c1ccccc1 [Example L5, N-{(5S)-5-[[(4-aminophenyl)sulfonyl](isobutyl)amino]-6-hydroxy-1,1-dimethylhexyl}-Nα-(methoxycarbonyl)-β-phenyl-L-phenylalaninamide]	0.154	185	–	–	–
COC(=O)N[C@H](C(=O)N[C@H](CCC[C@@H](CO)N(CCC(C)C)S(=O)(=O)c1ccc([C@H](C)O)cc1)C1CC1)C(c1ccc(F)cc1)c1ccc(F)cc1 [Example J3, N-{(1R,5S)-1-cyclopropyl-6-hydroxy-5-[({4-[(1S)-1-hydroxyethyl]phenyl}sulfonyl)(3-methylbutyl)amino]hexyl}-4-fluoro-β-(4-fluorophenyl)-Nα-(methoxycarbonyl)-L-phenylalaninamide]	0.011	25	–	–	–
CCCN([C@H](CO)CCC[C@H](C)NC(=O)[C@@H](NC(=O)OC)C(c1ccccc1)c1ccccc1)S(=O)(=O)c1ccc(N)cc1 [Example F2, N-{(1S,5S)-5-[[(4-aminophenyl)sulfonyl](propyl)amino]-6-hydroxy-1-methylhexyl}-Nα-(methoxycarbonyl)-β-phenyl-L-phenylalaninamide]	0.028	–	–	23	–
CC[C@@H](CCC[C@@H](CO)N(CCC(C)C)S(=O)(=O)c1ccc(N)c(F)c1)NC(=O)[C@@H](NC(=O)OC)C(c1ccccc1)c1ccccc1 [Example D3, N-{(1S,5S)-5-[[(4-amino-3-fluorophenyl)sulfonyl](3-methylbutyl)amino]-1-ethyl-6-hydroxyhexyl}-Nα-(methoxycarbonyl)-b-phenyl-L-phenylalaninamide]	0.054	12	–	–	–
Methyl {(1S)-1-(diphenylmethyl)-2-[((5S)-6-hydroxy-2-methyl-5-{(3-methylbutyl) [(4-methylphenyl)sulfonyl]amino}hexylamino]-2-oxoethyl}carbamate [Example C1]	0.2	–	–	–	193
COC(=O)N[C@H](C(=O)N[C@@H](C)CCC[C@@H](CO)N(CC1CC1)S(=O)(=O)c1ccc(N)cc1)C(c1ccccc1)c1ccccc1 [Example G7, N-{(1S,5S)-5-[[(4-aminophenyl)sulfonyl](cyclopropylmethyl)amino]-6-hydroxy-1-methylhexyl}-Nα-(methoxycarbonyl)-β-phenyl-L-phenylalaninamide]	0.024	15	–	–	–
CC[C@@H](CCC[C@@H](CO)N(CC(C)C)S(=O)(=O)c1ccc(CO)cc1)NC(=O)[C@@H](NC)C(c1ccccc1)c1ccccc1 [Example J24, N-{(1S,5S)-1-ethyl-6-hydroxy-5-[{[4-(hydroxymethyl)phenyl]sulfonyl}(isobutyl)amino]hexyl}-Nα-methyl-β-phenyl-L-phenylalaninamide hydrochloride]	–	16	0.055	–	–
COC(=O)N[C@@H](Cc1ccccc1Cl)C(=O)N[C@@H](C)CCC[C@@H](CO)N(C(C)C)S(=O)(=O)c1ccc(CO)cc1 [Example G10, 2-chloro-N-{(1S,5S)-6-hydroxy-5-[{[4-(hydroxymethyl)phenyl]sulfonyl}(isopropyl)amino]-1-methylhexyl}-Nα-(methoxycarbonyl)-L-phenylalaninamide]	0.389	49	–	–	–
